Molecular target: human GPR17 short isoform (Homo sapiens (Human), UniProt Q13304)
Test: GPR17 cAMP assay (hGPR17 cAMP, antagonist mode against EC80 of MDL29,951)
Type: cell-based
Details: CHO-K1 cells stably expressing human GPR17 short isoform; EC80 of agonist MDL29,951; forskolin 15 μM
Procedure, shortened: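 CHO-K1 cells stably expressing untagged human GPR17 short isoform, 10,000/well in HBSS/10 mM HEPES/0.1% BSA pH 7.4. Compounds added with EC80 MDL29,951 and 0.5 mM IBMX, then 15 μM forskolin 5 min later, 30 min at room temperature; cAMP by TR-FRET, normalized to reference antagonist, sigmoidal fit.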

Sequence of human GPR17 short isoform (Q13304 29-367): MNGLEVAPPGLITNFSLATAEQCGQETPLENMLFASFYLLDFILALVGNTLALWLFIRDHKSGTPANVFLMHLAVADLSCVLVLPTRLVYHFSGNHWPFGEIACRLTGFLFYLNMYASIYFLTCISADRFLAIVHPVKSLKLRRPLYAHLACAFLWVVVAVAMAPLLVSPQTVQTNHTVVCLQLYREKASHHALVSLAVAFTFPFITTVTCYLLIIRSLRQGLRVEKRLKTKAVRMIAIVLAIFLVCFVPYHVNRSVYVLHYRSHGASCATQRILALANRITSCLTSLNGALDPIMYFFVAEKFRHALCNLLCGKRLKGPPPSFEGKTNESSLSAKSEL

Row | IC50 [nM] | SMILES
1 | 101 | COc1nc(NS(=O)(=O)c2c[nH]c3cc(C)ccc23)ncc1CC(F)F [Example 182, N-[5-(2,2-difluoroethyl)-4-methoxy-pyrimidin-2-yl]-6-methyl-1H-indole-3-sulfonamide]
2 | 353 | CCCc1ccc2c(S(=O)(=O)Nc3ncc(CC(F)F)c(OC)n3)c[nH]c2c1 [Example 153, N-[5-(2,2-difluoroethyl)-4-methoxypyrimidin-2-yl]-6-propyl-1H-indole-3-sulfonamide]
3 | 106 | COc1nc(NS(=O)(=O)c2csc3nc(Cl)ccc23)ncc1CC(F)F [Example 139, 6-chloro-N-[5-(2,2-difluoroethyl)-4-methoxy-pyrimidin-2-yl]thieno[2,3-b]pyridine-3-sulfonamide]
4 | 104 | CCc1ccc2c(S(=O)(=O)Nc3ncc(CC(F)F)c(OC)n3)c[nH]c2c1 [Example 152, N-[5-(2,2-difluoroethyl)-4-methoxy-pyrimidin-2-yl]-6-ethyl-1H-indole-3-sulfonamide]
5 | 961 | COc1nc(NS(=O)(=O)c2c[nH]c3c(Br)cccc23)ncc1CC(F)F [Example 129, 7-bromo-N-[5-(2,2-difluoroethyl)-4-methoxy-pyrimidin-2-yl]-1H-indole-3-sulfonamide]
6 | 386 | COc1nc(NS(=O)(=O)c2c[nH]c3c(Cl)c(F)ccc23)ncc1CC(F)F [Example 130, 7-chloro-N-[5-(2,2-difluoroethyl)-4-methoxy-pyrimidin-2-yl]-6-fluoro-1H-indole-3-sulfonamide]
7 | 405 | COc1nc(NS(=O)(=O)c2c[nH]c3c2ccc2scnc23)ncc1CC(F)F [Example 290, N-[5-(2,2-Difluoroethyl)-4-Methoxy-Pyrimidin-2-Yl]-8H-Pyrrolo[2,3-e][1.3]Benzothiazole-6-Sulfonamide]
8 | 981 | COc1nc(NS(=O)(=O)c2c[nH]c3cc(CC#N)ccc23)ncc1CC(F)F [Example 197, 6-(cyanomethyl)-N-[5-(2,2-difluoroethyl)-4-methoxy-pyrimidin-2-yl]-1H-indole-3-sulfonamide]
9 | 1180 | COc1nc(NS(=O)(=O)c2c[nH]c3cc(C4COC4)ccc23)ncc1CC(F)F [Example 272, N-[5-(2,2-difluoroethyl)-4-methoxy-pyrimidin-2-yl]-6-(oxetan-3-yl)-1h-indole-3-sulfonamide]
10 | 433 | COc1nc(NS(=O)(=O)c2c[nH]c3c(CO)c(C)ccc23)ncc1CC(F)F [Example 292, N-[5-(2,2-Difluoroethyl)-4-Methoxy-Pyrimidin-2-Yl]-6-Methyl-7-Methylol-1H-Indole-3-Sulfonamide]
11 | 30 | COc1nc(NS(=O)(=O)c2c[nH]c3c(OC4CC4)c(Cl)ccc23)ncc1CC(F)F [Example 127, 6-chloro-7-(cyclopropoxy)-N-[5-(2,2-difluoroethyl)-4-methoxy-pyrimidin-2-yl]-1H-indole-3-sulfonamide]

More lines, now with the values behind:

Row | SMILES | IC50 [nM]
12 | COc1nc(NS(=O)(=O)c2c[nH]c3cc(C(F)F)ccc23)nc(OC)c1OCC#N [Example 237, N-[5-(cyanomethoxy)-4,6-dimethoxy-pyrimidin-2-yl]-6-(difluoromethyl)-1H-indole-3-sulfonamide] | 34
13 | COc1nc(NS(=O)(=O)c2c[nH]c3cc(Cl)ccc23)ncc1SC [Example 36, 6-chloro-N-(4-methoxy-5-methylsulfanyl-pyrimidin-2-yl)-1H-indole-3-sulfonamide] | 119
14 | COc1nc(NS(=O)(=O)c2c[nH]c3c(F)c(C(F)F)ccc23)nc(OC)c1CCC#N [Example 252, N-[5-(2-cyanoethyl)-4,6-dimethoxy-pyrimidin-2-yl]-6-(difluoromethyl)-7-fluoro-1H-indole-3-sulfonamide] | 14
15 | COc1nc(NS(=O)(=O)c2c[nH]c3cc(Cl)ccc23)nc(C(C)(F)F)c1Br [Example 82, N-[5-bromo-4-(1,1-difluoroethyl)-6-methoxy-pyrimidin-2-yl]-6-chloro-1H-indole-3-sulfonamide] | 752
16 | COCc1c(OC)nc(NS(=O)(=O)c2c[nH]c3cc(Cl)ccc23)nc1OC [Example 65, 6-chloro-N-[4,6-dimethoxy-5-(methoxymethyl)pyrimidin-2-yl]-1H-indole-3-sulfonamide] | 61
17 | COc1nc(NS(=O)(=O)c2c[nH]c3nc(C)ccc23)nc(OC)c1CC(F)F [Example 132, N-[5-(2,2-difluoroethyl)-4,6-dimethoxy-pyrimidin-2-yl]-6-methyl-1H-pyrrolo[2,3-b]pyridine-3-sulfonamide] | 39
18 | COc1nc(NS(=O)(=O)c2c[nH]c3cc(Cl)ccc23)ncc1OCC#N [Example 267, 6-chloro-N-[5-(cyanomethoxy)-4-methoxy-pyrimidin-2-yl]-1H-indole-3-sulfonamide] | 49
19 | COc1nc(NS(=O)(=O)c2c[nH]c3cc(C(F)F)ccc23)nc(OC)c1CC(F)F [Example 236, N-[5-(2,2-difluoroethyl)-4,6-dimethoxy-pyrimidin-2-yl]-6-(difluoromethyl)-1H-indole-3-sulfonamide] | 14
20 | CCOc1cnc(NS(=O)(=O)c2c[nH]c3cc(Cl)ccc23)nc1OC [Example 6, 6-chloro-N-(5-ethoxy-4-methoxy-pyrimidin-2-yl)-1H-indole-3-sulfonamide] | 129
21 | COc1nc(NS(=O)(=O)c2c[nH]c3cc(Cl)ccc23)ncc1OCCCF [Example 174, 6-chloro-N-[5-(3-fluoropropoxy)-4-methoxy-pyrimidin-2-yl]-1H-indole-3-sulfonamide] | 484
22 | COc1nc(NS(=O)(=O)c2c[nH]c3cc(Cl)ccc23)nc(OC)c1C [Example 17, 6-chloro-N-(4,6-dimethoxy-5-methyl-pyrimidin-2-yl)-1H-indole-3-sulfonamide] | 19
23 | COc1nc(NS(=O)(=O)c2c[nH]c3cc(Cl)ccc23)ncc1OC(F)(F)CF [Example 41, 6-chloro-N-[4-methoxy-5-(1,1,2-trifluoroethoxy)pyrimidin-2-yl]-1H-indole-3-sulfonamide] | 21
24 | COc1nc(NS(=O)(=O)c2c[nH]c3nc(Cl)ccc23)nc(OC)c1CC(F)CF (stereo not shown) [Example 289, 6-Chloro-N-[5-(2,3-Difluoropropyl)-4,6-Dimethoxy-Pyrimidin-2-Yl]-1H-Pyrrolo[2,3-b]Pyridine-3-Sulfonamide] | 69
25 | COc1nc(NS(=O)(=O)c2c[nH]c3nc(Br)ccc23)nc(OC)c1CCC#N [Example 113, 6-bromo-N-[5-(2-cyanoethyl)-4,6-dimethoxy-pyrimidin-2-yl]-1H-pyrrolo[2,3-b]pyridine-3-sulfonamide] | 21
26 | COc1nc(NS(=O)(=O)c2c[nH]c3cc(Cl)ccc23)ncc1OC(F)F [Example 8, 6-chloro-N-[5-(difluoromethoxy)-4-methoxy-pyrimidin-2-yl]-1H-indole-3-sulfonamide] | 182
27 | COc1nc(NS(=O)(=O)c2c[nH]c3nc(C)ccc23)nc(OC)c1OC(F)F [Example 286, N-[5-(Difluoromethoxy)-4,6-Dimethoxy-Pyrimidin-2-Yl]-6-Methyl-1H-Pyrrolo[2,3-b]Pyridine-3-Sulfonamide] | 203
28 | COc1nc(NS(=O)(=O)c2c[nH]c3cc(Cl)ccc23)nc(OCCF)c1Br [Example 14, N-[5-bromo-4-(2-fluoroethoxy)-6-methoxy-pyrimidin-2-yl]-6-chloro-1H-indole-3-sulfonamide] | 215
